Laboratory results published in PMC4704863 (Angewandte Chemie (International ed. in English), 2014).
Ends that are not written are not given here. Peptide text beside a SMILES is read from it. * marks the point of attachment. Palmitoyl = CCCCCCCCCCCCCCCC(=O)*

Experiments:
hY4R [1] = target: T1, hY4R (Homo sapiens, UniProt P50391); assay: Arr3–receptor interaction by BRET; type: cell-based; settings: arr3 association after 10 min
hY4R [2] = target: T1, hY4R; type: cell-based; settings: Col-24 epithelial layers, response to 10 nM hPP after prestimulation
Col-24 epithelial layers = assay: Antisecretory responses; type: cell-based, human
[3] = target: human neuropeptide Y receptor Y4 (hY4R) (human) (UniProt P50391); assay: radioligand binding
Sequence of human neuropeptide Y receptor Y4 (hY4R) (human) (P50391 whole entry): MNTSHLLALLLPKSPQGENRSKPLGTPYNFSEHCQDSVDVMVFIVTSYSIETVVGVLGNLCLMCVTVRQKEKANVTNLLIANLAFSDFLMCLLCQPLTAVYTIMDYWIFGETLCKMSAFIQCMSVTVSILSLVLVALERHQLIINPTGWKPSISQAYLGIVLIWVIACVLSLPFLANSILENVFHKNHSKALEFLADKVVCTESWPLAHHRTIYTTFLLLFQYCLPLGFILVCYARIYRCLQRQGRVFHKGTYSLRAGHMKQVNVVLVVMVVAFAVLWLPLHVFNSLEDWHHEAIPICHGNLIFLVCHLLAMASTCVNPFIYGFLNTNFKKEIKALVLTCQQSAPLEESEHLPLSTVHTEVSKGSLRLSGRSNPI

[4] = target: human neuropeptide Y receptor Y4 (hY4R) (human, UniProt P50391 1-375); assay: radioligand binding
Sequence of human neuropeptide Y receptor Y4 (hY4R) (P50391 whole entry): as above

[5] = Col-24 epithelial layers, 100 nM peptide

T1 sequence (P50391 whole entry): as above

IC50 [3] [nM] | Molecule | arr3 recruitment, maximal netBRET (BRETmax) (hY4R [1]) | Desensitization of hY4R after prestimulation (hY4R [2]) | Isc response, time course (Col-24 epithelial layers; [5]) | other results
36.8 | PEG5-modified [K^22,Q^34]hPP (4A) (peptide) | – | – | – | –
94.2 | PEG22-modified [K^22,Q^34]hPP (5A) (peptide) | – | – | – | –

Further lines, the molecule ahead of its results:

Molecule | IC50 [3] [nM] | arr3 recruitment, maximal netBRET (BRETmax) (hY4R [1]) | Desensitization of hY4R after prestimulation (hY4R [2]) | Isc response, time course (Col-24 epithelial layers; [5]) | other results
CCCCCCCCCCCCCCCC(=O)NCCCC[C@H](NC(=O)[C@H](C)NC(=O)[C@H](Cc1ccc(O)cc1)NC(=O)[C@H](CCC(N)=O)NC(=O)[C@H](C)NC(=O)[C@H](CCSC)NC(=O)[C@H](CCC(N)=O)NC(=O)[C@H](CCC(=O)O)NC(=O)[C@@H]1CCCN1C(=O)[C@@H](NC(=O)[C@H](C)NC(=O)[C@H](CC(N)=O)NC(=O)[C@H](CC(=O)O)NC(=O)CNC(=O)[C@@H]1CCCN1C(=O)[C@H](Cc1ccc(O)cc1)NC(=O)[C@@H](NC(=O)[C@@H]1CCCN1C(=O)[C@H](CCC(=O)O)NC(=O)[C@H](CC(C)C)NC(=O)[C@@H]1CCCN1C(=O)[C@H](C)N)C(C)C)[C@@H](C)O)C(=O)N[C@@H](CC(=O)O)C(=O)N[C@@H](CC(C)C)C(=O)N[C@@H](CCCNC(=N)N)C(=O)N[C@@H](CCCNC(=N)N)C(=O)N[C@@H](Cc1ccc(O)cc1)C(=O)N[C@H](C(=O)N[C@@H](CC(N)=O)C(=O)N[C@@H](CCSC)C(=O)N[C@@H](CC(C)C)C(=O)N[C@H](C(=O)N[C@@H](CCCNC(=N)N)C(=O)N[C@@H](CCC(N)=O)C(=O)N[C@@H](CCCNC(=N)N)C(=O)N[C@@H](Cc1ccc(O)cc1)C(N)=O)[C@@H](C)O)[C@@H](C)CC [3A] (H-APLEPVYPGDNATPEQMAQYAK(Palmitoyl)DLRRYINMLTRQRY-NH2; N-terminus and C-terminus assumed) | – | increased arr3 recruitment | concentration-dependent desensitization | prolonged reductions in Isc | Concentration–response in Col-24 cells (potency and efficacy) (Col-24 epithelial layers; Col-24 cells, Isc): good activity and increased efficacy; Onset of Isc response (Col-24 epithelial layers; [5]): delayed; Maximum of Isc response (Col-24 epithelial layers; Col-24 epithelial layers, 100 nM peptide, compared with 2A): higher maximum than the parental peptide
APLEPVYPGDNATPEQMAQYAKDLRRYINMLTRQRY-NH2 [2A] | – | robust arr3 recruitment | concentration-dependent desensitization | rapid and transient activity | Time of maximum Isc effect (Col-24 epithelial layers; [5]): about 5 min
palmitoylated [K^22,Q^34]hPP (3A) (peptide) | 1.2 | – | – | – | –
APLEPVYPGDNATPEQMAQYAKDLRRYINMLTRQRY (ends and bridges not checked) [lead peptide 2A ([Q^34]hPP core sequence, Obinepitide)] | – | – | – | – | IC50 [4]: 0.5 nM
